According to patent publication US10723741B1, “DNA polymerase IIIC inhibitors and use thereof” (Acurx Pharmaceuticals, LLC, priority 2018, dated 2020):
Values after ≈ are worked out from the molar mass of the structure shown. Like-named read-outs stand apart in the source and are kept apart here.

Key:
Assay type in all cases: cell-based
[1] = test system: Staphylococcus aureus NRS384 (MRSA); assay: Broth microdilution MIC, S. aureus NRS384 (MRSA); set-up: MIC NRS 384 (MRSA): unit not given here; details: for MIC: Staphylococcus aureus
Summary of the method: (§1)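 Two-fold dilutions from 64 to 0.0625 μg/ml final, 1% DMSO, were inoculated at ~5.0×10^5 cfu/ml in the strain's test medium and kept 20 h at 37 °C in ambient atmosphere. Colonies were grown on MHA, with S. pneumoniae on blood agar under 5% CO2.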

[2] = test system: Staphylococcus aureus ATCC 29213 (MSSA); assay: Broth microdilution MIC, S. aureus ATCC 29213 (MSSA); details: read-out: MIC S. aureus ATCC 29213 (MSSA)
Summary of the method: as §1

[3] = test system: Enterococcus faecalis ATCC 29212; assay: Broth microdilution MIC, E. faecalis ATCC 29212; details: read-out: MIC E. faecalis ATCC 29212
Summary of the method: as §1

[4] = test system: Enterococcus faecium ATCC 700221 (VRE); assay: Broth microdilution MIC, E. faecium ATCC 700221 (VRE); set-up: MIC E. faecium ATCC 700221 (VRE): unit: ug/mL; details: for MIC: Enterococcus faecium
Summary of the method: as §1

[5] = test system: Streptococcus pneumoniae ATCC 49619; assay: Broth microdilution MIC, S. pneumoniae ATCC 49619; details: read-out: MIC S. pneumoniae ATCC 49619
Summary of the method: as §1

[6] = test system: Bacillus subtilis ATCC 6633; assay: Broth microdilution MIC, B. subtilis ATCC 6633; details: read-out: MIC B. subtilis ATCC 6633
Summary of the method: as §1

[7] = test system: Escherichia coli ATCC 25922; assay: Broth microdilution MIC, E. coli ATCC 25922 (MHIIB w & w/o 4 mM EDTA); details: for MIC: Escherichia coli, read-out: MIC E. coli ATCC 25922
Summary of the method: as §1

[8] = S. aureus NRS 384, broth microdilution, 37° C., 20 hours, read-out: MIC NRS 384 (MRSA)
[9] = broth microdilution, 37° C., 20 hours
[10] = ATCC29212, broth microdilution, 37° C., 20 hours
[11] = broth microdilution, 37° C., 20 hours, read-out: MIC E. faecium ATCC 700221 (VRE)
[12] = ATCC49619, broth microdilution, 37° C., 20 hours
[13] = ATCC6633, broth microdilution, 37° C., 20 hours
[14] = ATCC25922, without EDTA, broth microdilution, 37° C., 20 hours
[15] = with 4 mM EDTA, broth microdilution, 37° C., 20 hours
[16] = broth microdilution, 37° C., 20 hours, read-out: MIC NRS 384 (MRSA)

Compound	MIC [2, 9]	MIC [3, 10]	MIC [4, 11]	MIC [5, 12]	MIC [6, 13]	MIC [7, 14]	MIC E. coli ATCC 25922 + 4 mM EDTA [7, 15]	MIC [1, 16]	other results
O=c1[nH]c(NCc2ccc(Cl)c(Cl)c2)nc2c(Cl)nn(Cc3cocn3)c12 [Compound 307, 3-Chloro-5-((3,4-dichlorobenzyl)amino)-1-(oxazol-4-ylmethyl)-1H-pyrazolo[4,3-d]pyrimidin-7(6H)-one]	1 µg/mL (≈ 2.35 µM)	2 µg/mL (≈ 4.7 µM)	1 µg/mL (≈ 2.35 µM)	4 µg/mL (≈ 9.4 µM)	0.5 µg/mL (≈ 1.17 µM)	> 64 µg/mL	>64 µg/mL	–	MIC [1, 8]: 1 µg/mL (≈ 2.35 µM); MIC ([1]; broth microdilution, MHIIB, 37° C., 20 hours, read-out: MIC against S. aureus NRS 384 (MRSA)): ≤ 1 µg/mL; MIC ([4]; broth microdilution, MHIIB, 37° C., 20 hours, read-out: MIC against E. faecium ATCC 700221 (VRE)): ≤ 1 µg/mL
Cl.O=C(O)C1(Cn2ncc3nc(NCc4ccc(Cl)c(Cl)c4)[nH]c(=O)c32)CCNCC1 [Compound 196, 4-((5-((3,4-dichlorobenzyl)amino)-7-oxo-6,7-dihydro-1H-pyrazolo[4,3-d]pyrimidin-1-yl)methyl)piperidine-4-carboxylic acid hydrochloride]	> 64 µg/mL	> 64 µg/mL	> 64 µg/mL	> 64 µg/mL	> 64 µg/mL	> 64 µg/mL	>64 µg/mL	> 64 µg/mL	–
CN(C)C1CCN(CCn2ncc3nc(NCc4ccc(Cl)c(Cl)c4)[nH]c(=O)c32)CC1.Cl.Cl [Compound 67, 5-((3,4-Dichlorobenzyl)amino)-1-(2-(4-(dimethylamino)piperidin-1-yl)ethyl)-1H-pyrazolo[4,3-d]pyrimidin-7(6H)-one dihydrochloride]	32 µg/mL	16 µg/mL	16 µg/mL	8 µg/mL	8 µg/mL	> 64 µg/mL	>64 µg/mL	32 µg/mL	–
COCCOC/C=C/Cn1ncc2nc(NCc3ccc(Cl)c(Cl)c3)[nH]c(=O)c21 [Compound 193, (E)-5-((3,4-dichlorobenzyl)amino)-1-(4-(2-methoxyethoxy)but-2-en-1-yl)-1H-pyrazolo[4,3-d]pyrimidin-7(6H)-one]	4 µg/mL (≈ 9.13 µM)	8 µg/mL (≈ 18.3 µM)	4 µg/mL (≈ 9.13 µM)	4 µg/mL (≈ 9.13 µM)	1 µg/mL (≈ 2.28 µM)	> 64 µg/mL	>64 µg/mL	4 µg/mL (≈ 9.13 µM)	–
Cl.Cl.O=c1[nH]c(NCc2ccc(Cl)c(Cl)c2)nc2cnn(C3CCN(c4ccncc4)C3)c12 (stereo not shown) [Compound 180, 5-((3,4-Dichlorobenzyl)amino)-1-(1-(pyridin-4-yl)pyrrolidin-3-yl)-1H-pyrazolo[4,3-d]pyrimidin-7(6H)-one dihydrochloride]	8 µg/mL	8 µg/mL	–	4 µg/mL	2 µg/mL	64 µg/mL	16 µg/mL	–	MIC NRS 384 (MRSA) [1, 9]: 4/4; MIC E. faecium ATCC 700221 (VRE) [4, 9]: 4/4
C[Si](C)(C)CCOCNC(=O)Cn1ncc2nc(NCc3ccc(Cl)c(Cl)c3)[nH]c(=O)c21 [Compound 197, 2-(5-((3,4-dichlorobenzyl)amino)-7-oxo-6,7-dihydro-1H-pyrazolo[4,3-d]pyrimidin-1-yl)-N-((2-(trimethylsilyl)ethoxy)methyl)acetamide]	> 64 µg/mL	> 64 µg/mL	> 64 µg/mL	> 64 µg/mL	> 64 µg/mL	> 64 µg/mL	>64 µg/mL	> 64 µg/mL	–
Cn1ncc2nc(NCc3nc4ccccc4s3)[nH]c(=O)c21 [Compound 18, 5-((Benzo[d]thiazol-2-ylmethyl)amino)-1-methyl-1H-pyrazolo[4,3-d]pyrimidin-7(6H)-one]	> 64 µg/mL	> 64 µg/mL	> 64 µg/mL	> 64 µg/mL	> 64 µg/mL	> 64 µg/mL	>64 µg/mL	> 64 µg/mL	–
O=C1CC(Cn2ncc3nc(NCc4ccc(Cl)c(Cl)c4)[nH]c(=O)c32)CN1CCO (stereo not shown) [Compound 177, 5-((3,4-dichlorobenzyl)amino)-1-((1-(2-hydroxyethyl)-5-oxopyrrolidin-3-yl)methyl)-1H-pyrazolo[4,3-d]pyrimidin-7(6H)-one]	64 µg/mL (≈ 142 µM)	32 µg/mL (≈ 70.9 µM)	16 µg/mL (≈ 35.5 µM)	4 µg/mL (≈ 8.86 µM)	16 µg/mL (≈ 35.5 µM)	> 64 µg/mL	>64 µg/mL	64 µg/mL (≈ 142 µM)	–
COP(=O)(O)OCCOCCn1ncc2nc(NCc3ccc(Cl)c(Cl)c3)[nH]c(=O)c21 [Compound 298, 2-(2-(5-((3,4-Dichlorobenzyl)amino)-7-oxo-6,7-dihydro-1H-pyrazolo[4,3-d]pyrimidin-1-yl)ethoxy)ethyl methyl hydrogen phosphate]	–	–	–	–	–	–	>64 µg/mL	–	MIC ([1]; 20 h, read-out: MIC NRS 384 (MRSA)): > 64 µg/mL; MIC ([2]; 20 h): > 64 µg/mL; MIC ([3]; ATCC29212, 20 h): > 64 µg/mL; MIC ([4]; 20 h, read-out: MIC E. faecium ATCC 700221 (VRE)): > 64 µg/mL; MIC ([5]; ATCC49619, 20 h): > 64 µg/mL; MIC ([6]; ATCC6633, 20 h): > 64 µg/mL; MIC ([7]; ATCC25922, 20 h): > 64 µg/mL
Cn1ncc2nc(NCc3ccc4[nH]ncc4c3)[nH]c(=O)c21 [Compound 13, 5-(((1H-indazol-5-yl)methyl)amino)-1-methyl-1H-pyrazolo[4,3-d]pyrimidin-7(6H)-one]	> 64 µg/mL	> 64 µg/mL	> 64 µg/mL	> 64 µg/mL	> 64 µg/mL	> 64 µg/mL	>64 µg/mL	> 64 µg/mL	–
O=c1[nH]c(NCc2ccc(Cl)c(Cl)c2)nc2cnn(C[C@@H]3CO[C@H](CO)CO3)c12 [Compound 208, 5-((3,4-dichlorobenzyl)amino)-1-(((2R,5R)-5-(hydroxymethyl)-1,4-dioxan-2-yl)methyl)-1H-pyrazolo[4,3-d]pyrimidin-7(6H)-one]	16 µg/mL (≈ 36.3 µM)	8 µg/mL (≈ 18.2 µM)	4 µg/mL (≈ 9.08 µM)	8 µg/mL (≈ 18.2 µM)	2 µg/mL (≈ 4.54 µM)	> 64 µg/mL	>64 µg/mL	16 µg/mL (≈ 36.3 µM)	–
O=c1[nH]c(NCc2ccc(Cl)c(Cl)c2)nc2cn(-c3ncccn3)nc12 [Compound 140, 5-((3,4-Dichlorobenzyl)amino)-2-(pyrimidin-2-yl)-2H-pyrazolo[4,3-d]pyrimidin-7(6H)-one]	> 64 µg/mL	> 64 µg/mL	32 µg/mL (≈ 82.4 µM)	4 µg/mL (≈ 10.3 µM)	4 µg/mL (≈ 10.3 µM)	> 64 µg/mL	>64 µg/mL	> 64 µg/mL	–
N.N.O=c1[nH]c(NCc2ccc(Cl)c(Cl)c2)nc2cnn(CCOCCOCOP(=O)(O)O)c12 [Compound 299, ammonium (2-(2-(5-((3,4-dichlorobenzyl)amino)-7-oxo-6,7-dihydro-1H-pyrazolo[4,3-d]pyrimidin-1-yl)ethoxy)ethoxy)methyl phosphate]	> 64 µg/mL	> 64 µg/mL	16 µg/mL	16 µg/mL	64 µg/mL	> 64 µg/mL	–	–	MIC [1, 8]: > 64 µg/mL; MIC E. coli ATCC 25922 + 4 mM EDTA ([7]; ATCC25922, 20 h): >64 µg/mL
